The results in this text go back to ChEMBL document CHEMBL1201862, “PubChem BioAssay data set” (2004).

Broadly, the IC50 is the concentration that gives 50% inhibition. The EC50 is the concentration that produces a half-maximal response. What is called AC50 is the midpoint of the concentration-response curve, whichever way the signal moves. For orientation: GI50 means the concentration at which growth is held to half of that of the control.

Assay [1] has as its target T1, Caspase-3 (Homo sapiens, UniProt P42574).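 Note: Dose-response selectivity test against caspase-3 for candidate inhibitors of sentrin-specific proteases (SENPs).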
T1 sequence (P42574 whole entry): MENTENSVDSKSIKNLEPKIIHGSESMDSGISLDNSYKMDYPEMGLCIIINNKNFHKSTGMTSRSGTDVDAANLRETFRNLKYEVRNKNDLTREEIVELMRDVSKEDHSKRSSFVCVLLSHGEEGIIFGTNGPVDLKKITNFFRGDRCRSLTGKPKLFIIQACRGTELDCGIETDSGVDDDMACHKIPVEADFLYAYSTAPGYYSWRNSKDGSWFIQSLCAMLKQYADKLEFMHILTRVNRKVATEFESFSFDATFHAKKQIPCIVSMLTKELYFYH
The assay is classed as functional.

The target in assay [2] is T2, Sentrin-specific protease 7 (Homo sapiens, UniProt Q9BQF6).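 Note: Luminescence-based dose-response confirmation of ultra-high-throughput screening hits, measuring inhibition of SENP7.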
T2 sequence (Q9BQF6 whole entry): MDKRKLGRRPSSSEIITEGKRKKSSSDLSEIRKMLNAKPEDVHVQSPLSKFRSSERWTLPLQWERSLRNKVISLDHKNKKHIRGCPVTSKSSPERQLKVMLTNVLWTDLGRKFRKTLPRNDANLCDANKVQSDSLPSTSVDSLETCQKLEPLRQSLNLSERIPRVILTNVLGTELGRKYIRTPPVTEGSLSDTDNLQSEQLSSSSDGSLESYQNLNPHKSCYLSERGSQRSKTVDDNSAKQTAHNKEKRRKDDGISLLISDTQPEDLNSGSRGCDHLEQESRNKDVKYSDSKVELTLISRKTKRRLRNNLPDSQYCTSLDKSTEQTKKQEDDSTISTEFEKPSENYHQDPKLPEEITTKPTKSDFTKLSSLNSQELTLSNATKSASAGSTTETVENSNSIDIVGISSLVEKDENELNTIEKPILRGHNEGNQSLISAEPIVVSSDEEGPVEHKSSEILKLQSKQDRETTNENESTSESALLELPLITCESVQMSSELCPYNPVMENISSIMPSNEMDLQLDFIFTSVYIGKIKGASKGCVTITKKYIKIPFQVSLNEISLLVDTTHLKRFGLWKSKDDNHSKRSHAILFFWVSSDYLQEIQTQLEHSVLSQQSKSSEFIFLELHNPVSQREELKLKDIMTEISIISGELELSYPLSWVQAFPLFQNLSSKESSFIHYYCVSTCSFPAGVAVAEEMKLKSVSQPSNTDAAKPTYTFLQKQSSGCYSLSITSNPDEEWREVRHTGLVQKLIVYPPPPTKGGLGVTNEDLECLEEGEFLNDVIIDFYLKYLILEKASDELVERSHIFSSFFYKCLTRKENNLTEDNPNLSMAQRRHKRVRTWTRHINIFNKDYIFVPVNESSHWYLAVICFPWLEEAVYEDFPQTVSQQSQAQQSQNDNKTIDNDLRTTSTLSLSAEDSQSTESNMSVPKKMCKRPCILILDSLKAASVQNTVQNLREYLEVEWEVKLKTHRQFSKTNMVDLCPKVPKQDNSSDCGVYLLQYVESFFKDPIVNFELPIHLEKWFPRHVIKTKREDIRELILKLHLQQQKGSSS
In kind it is functional.

The target of assay [3] is T3, Sentrin-specific protease 6 (Homo sapiens, UniProt Q9GZR1).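 Note: Luminescence-based dose-response confirmatory assay of SENP6 inhibition, following up an ultra-high-throughput screen.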
T3 sequence (Q9GZR1 whole entry): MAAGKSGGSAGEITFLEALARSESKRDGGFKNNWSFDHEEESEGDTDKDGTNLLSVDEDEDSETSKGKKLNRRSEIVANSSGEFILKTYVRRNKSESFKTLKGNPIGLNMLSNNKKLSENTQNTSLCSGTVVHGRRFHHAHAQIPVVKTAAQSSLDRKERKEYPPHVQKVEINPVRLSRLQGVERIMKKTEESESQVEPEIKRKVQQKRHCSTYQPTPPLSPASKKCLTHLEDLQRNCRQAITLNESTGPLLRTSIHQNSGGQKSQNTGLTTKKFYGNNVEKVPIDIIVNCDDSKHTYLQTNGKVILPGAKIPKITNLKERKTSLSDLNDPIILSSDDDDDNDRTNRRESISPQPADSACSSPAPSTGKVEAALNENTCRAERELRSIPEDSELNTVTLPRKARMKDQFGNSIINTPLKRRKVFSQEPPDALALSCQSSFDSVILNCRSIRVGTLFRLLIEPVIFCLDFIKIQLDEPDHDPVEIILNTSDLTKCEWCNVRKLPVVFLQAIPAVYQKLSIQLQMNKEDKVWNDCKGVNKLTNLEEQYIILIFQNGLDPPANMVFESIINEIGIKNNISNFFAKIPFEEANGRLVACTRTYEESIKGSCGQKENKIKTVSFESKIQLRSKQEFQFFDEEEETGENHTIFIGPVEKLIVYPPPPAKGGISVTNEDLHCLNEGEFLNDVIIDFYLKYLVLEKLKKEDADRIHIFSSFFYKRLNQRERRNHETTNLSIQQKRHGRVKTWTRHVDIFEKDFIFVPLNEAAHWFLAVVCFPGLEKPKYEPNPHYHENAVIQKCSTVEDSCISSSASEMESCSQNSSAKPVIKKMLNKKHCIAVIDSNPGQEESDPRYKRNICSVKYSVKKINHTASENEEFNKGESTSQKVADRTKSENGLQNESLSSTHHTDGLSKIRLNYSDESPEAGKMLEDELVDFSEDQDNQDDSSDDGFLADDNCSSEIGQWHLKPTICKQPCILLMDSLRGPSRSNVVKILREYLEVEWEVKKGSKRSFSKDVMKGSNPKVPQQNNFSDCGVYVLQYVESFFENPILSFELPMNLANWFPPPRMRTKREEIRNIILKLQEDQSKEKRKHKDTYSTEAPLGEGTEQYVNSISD
The assay is classed as functional.

The target in assay [4] is T4, Sentrin-specific protease 8 (Homo sapiens, UniProt Q96LD8).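 Note: luminescence read-out of SENP8 inhibition, dose-response confirmation following an ultra-high-throughput screen.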
T4 sequence (Q96LD8 whole entry): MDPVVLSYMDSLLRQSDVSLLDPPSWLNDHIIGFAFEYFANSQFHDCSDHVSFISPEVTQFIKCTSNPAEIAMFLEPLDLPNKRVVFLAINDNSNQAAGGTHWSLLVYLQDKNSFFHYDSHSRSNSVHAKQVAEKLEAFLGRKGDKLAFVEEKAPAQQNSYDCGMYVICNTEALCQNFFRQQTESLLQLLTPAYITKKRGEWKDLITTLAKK
In kind it is functional.

The target of assay [5] is T5, Protein skinhead-1 (Caenorhabditis elegans, UniProt P34707).
T5 sequence (P34707 whole entry): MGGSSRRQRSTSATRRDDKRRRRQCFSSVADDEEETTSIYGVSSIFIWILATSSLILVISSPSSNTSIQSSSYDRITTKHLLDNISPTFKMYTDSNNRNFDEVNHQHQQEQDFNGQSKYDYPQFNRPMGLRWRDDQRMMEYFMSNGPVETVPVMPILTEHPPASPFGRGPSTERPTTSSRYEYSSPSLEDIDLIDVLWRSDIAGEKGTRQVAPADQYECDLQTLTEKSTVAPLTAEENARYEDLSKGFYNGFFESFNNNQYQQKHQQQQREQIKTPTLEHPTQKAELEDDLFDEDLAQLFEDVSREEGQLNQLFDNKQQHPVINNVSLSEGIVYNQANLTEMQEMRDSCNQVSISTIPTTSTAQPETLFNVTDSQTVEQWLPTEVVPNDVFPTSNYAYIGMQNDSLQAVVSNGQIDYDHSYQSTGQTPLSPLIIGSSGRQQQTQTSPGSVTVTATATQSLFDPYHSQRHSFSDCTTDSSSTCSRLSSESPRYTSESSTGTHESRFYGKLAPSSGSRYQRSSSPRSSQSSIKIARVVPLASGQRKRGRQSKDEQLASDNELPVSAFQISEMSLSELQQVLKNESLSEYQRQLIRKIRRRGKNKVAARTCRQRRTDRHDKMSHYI
The assay is classed as functional.

Assay [6] deals with T6, Endoribonuclease toxin MazF (Escherichia coli K-12, UniProt P0AE70).
T6 sequence (P0AE70 whole entry): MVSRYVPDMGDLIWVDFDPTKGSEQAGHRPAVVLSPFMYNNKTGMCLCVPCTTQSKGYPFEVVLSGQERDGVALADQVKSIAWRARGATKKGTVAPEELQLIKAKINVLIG
The assay can be described thus: activation of MazEF endoribonuclease cleavage – biochemical, fluorescence, single-stranded RNA substrate, uHTS hits, dose response (AID 588481). The assay is classed as functional.

For assay [7], the target named is T6, Endoribonuclease toxin MazF. Kind of assay: substrate-only fluorescence increase artefacts – biochemical, single-stranded RNase substrate, counter-screen for MazEF activator project, dose response (AID 588502). The assay is classed as functional. (A counterscreen serves to expose hits that act by an unwanted route or on another target.)
The nature of assay [8]: Luminescence Cell-Based Dose Confirmation HTS to Identify Activators of 5'UTR Stem-Loop Driven Alpha-Synuclein mRNA Translation in H4 Neuroglioblastoma Cells. [Related pubchem assays: 1829 (Project Summary), 1814 (Primary HTS)]. In kind it is functional.
Assay [9] can be described thus: Luminescence Cell-Based Dose Response HTS to Identify Activators of Luciferase Translation or Activity in H4 […] Cells. [Related pubchem assays: 1829 (Project Summary), 1814 (Primary HTS)]. The assay is classed as functional.
Assay [10] relates to Streptococcus sp. 'group A'. The assay can be described thus: Streptococcus pyogenes SK(-)GAS viability under kanamycin – luminescence, BacTiterGlo, confirmation, counter-screen for streptokinase expression inhibitor project, dose response (AID 1900). The assay is classed as functional, organism-based.
For assay [11], the system named is H4. The assay can be described thus: Luminescence Cell-Based Dose Response HTS to Identify Activators of 5'UTR Stem-Loop Driven Prion Protein mRNA Translation in H4 Neuroglioblastoma Cells. [Related pubchem assays: 1829 (Project Summary), 1814 (Primary HTS)]. The assay is classed as functional. The conditions noted are these: Homo sapiens.
Assay [12] concerns the target T7, Streptokinase A (Streptococcus pyogenes serotype M1, UniProt P10520).
T7 sequence (P10520 whole entry): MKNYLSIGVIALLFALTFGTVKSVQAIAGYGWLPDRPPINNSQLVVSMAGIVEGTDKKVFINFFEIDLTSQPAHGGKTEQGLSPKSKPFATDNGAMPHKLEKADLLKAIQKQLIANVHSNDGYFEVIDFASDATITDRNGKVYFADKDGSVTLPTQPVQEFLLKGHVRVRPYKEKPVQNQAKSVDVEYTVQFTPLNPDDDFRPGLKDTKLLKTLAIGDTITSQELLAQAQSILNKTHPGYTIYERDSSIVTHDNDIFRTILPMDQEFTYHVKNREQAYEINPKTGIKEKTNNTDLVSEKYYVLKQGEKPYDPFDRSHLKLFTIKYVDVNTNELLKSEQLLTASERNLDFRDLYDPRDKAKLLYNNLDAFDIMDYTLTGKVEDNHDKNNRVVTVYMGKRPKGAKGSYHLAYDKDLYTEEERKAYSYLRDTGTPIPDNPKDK
The assay can be described thus: viability-normalized secreted streptokinase activity reduction – plasminogen activation absorbance, OD405, dose response (AID 1914).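 Note: secreted streptokinase activity via plasminogen activation per viability signal from cell pellet.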 The assay is classed as functional, Streptococcus pyogenes M1 GAS.

In assay [13] the test system is Streptococcus. Kind of assay: GAS UMAA2166 growth inhibition – luminescence, BacTiterGlo, counter-screen for streptokinase expression inhibitor project, dose response (AID 1915).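 Note: potency for reduction of bacterial viability or growth.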 The assay is classed as functional, organism-based.
Assay [14] deals with Cytochrome P450 2C9 (Homo sapiens, UniProt P11712).
Cytochrome P450 2C9, sequence (P11712 whole entry): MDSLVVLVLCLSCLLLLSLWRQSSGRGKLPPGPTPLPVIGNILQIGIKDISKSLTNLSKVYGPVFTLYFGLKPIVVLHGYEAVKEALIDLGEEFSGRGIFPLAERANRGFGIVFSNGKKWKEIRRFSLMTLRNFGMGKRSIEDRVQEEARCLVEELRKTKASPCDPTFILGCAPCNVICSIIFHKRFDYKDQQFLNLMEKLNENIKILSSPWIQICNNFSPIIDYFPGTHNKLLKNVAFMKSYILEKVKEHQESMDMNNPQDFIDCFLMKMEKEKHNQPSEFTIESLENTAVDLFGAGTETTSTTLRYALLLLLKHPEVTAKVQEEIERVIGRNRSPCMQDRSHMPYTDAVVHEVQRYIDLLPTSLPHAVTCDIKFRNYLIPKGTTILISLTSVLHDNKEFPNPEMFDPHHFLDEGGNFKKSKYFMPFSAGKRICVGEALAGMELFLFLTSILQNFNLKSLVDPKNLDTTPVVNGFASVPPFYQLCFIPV
In assay [15] the test system is P388/ADR. The assay can be described thus: cells. The assay is classed as functional. The settings on record: Mus musculus.
Assay [16] deals with SN12K1. Kind of assay: cells. In kind it is functional. The settings on record: Homo sapiens.
The subject of assay [17] is P388. Kind of assay: cells. The assay is classed as functional. The conditions noted are these: Mus musculus.

Activity calls are given as the source filed them. Some results are limits rather than exact numbers.

`CCCOc1ccc(-c2nnc(-c3ccco3)o2)cc1`: the IC50 in assay [1] was 17.4 µM (active); in assay [2], 11.6 µM (active); in assay [3] it was 22.4 µM (active); in assay [4] it was 25.8 µM (active); in assay [5] it was 64 µM (inactive).
In the case of `CCN(CCNc1ccc([N+](=O)[O-])c2cccnc12)S(=O)(=O)c1ccccc1`, the EC50 in assay [6] and in assay [7] was > 99 µM (inactive) in each case.
`COc1ccc(CNC(=O)c2cc3c(=O)n4ccccc4nc3n(Cc3cccnc3)c2=N)cc1`: the values for the EC50 in assay [6] and in [7] were 55.4 µM (inactive) and 47.3 µM (inactive), respectively.
For `O=C1/C(=C/Nc2ccc(O)cc2)c2ccccc2C(=O)N1Cc1ccccc1`, the EC50 was 17.7 µM (active) in [8]; 39.6 µM (active) in assay [9]; 6.51 µM (active) in assay [10]; 33 µM (active) in assay [11]; 18.6 µM (active) in [12]; 14.6 µM (active) in assay [13]. Further, the EC50 in assay [6] is > 99 µM (inactive); in assay [7], 44.3 µM (inactive).
For the molecule `Cc1ccc(OCC(=O)Nc2ccc(Cl)cc2)c(-n2nc3ccccc3n2)c1`, the EC50 in [6] and in assay [7] was > 99 µM (inactive) throughout. For the same molecule, the AC50 in assay [14] was 2 µM (inconclusive).
For `COC1=C2C[C@@H](C)C[C@@H](OC)[C@@H](O)[C@H](C)/C=C(\C)[C@@H](OC(N)=O)[C@H](OC)/C=C\C=C(/C)C(=O)NC(=CC1=O)C2=O`, the GI50 in [15] is 0.212 µM (active); in [16] it was 0.11 µM (active); in [17], 0.015 µM (active).
For `COCCCn1c(=O)/c(=C/c2ccccc2OC(F)F)s/c1=C(\C#N)C(=O)NCCOC`, the EC50 in [6] and in [7] was > 99 µM (inactive) each time.
With `CSc1nc2c(ncn2C2OCC(O)C(O)C2O)c(=O)[nH]1` (configuration not stated), the GI50 in assay [15], in assay [16] and in assay [17] was > 100 µM (inactive) throughout.
For `CCCCCn1cc2c3c(cccc31)C1C=C(C)CN(C)[C@@H]1C2.Cc1ccc(C(=O)OC(C(=O)O)C(OC(=O)c2ccc(C)cc2)C(=O)O)cc1` (configuration not stated), the results for the GI50 in [15], in assay [16] and in assay [17] were 3.18 µM (inactive), 3.56 µM (inactive) and 2.63 µM (inactive), respectively.
In the case of `N#C/C(=C\c1ccncc1)c1csc2ccccc12`, the GI50 in assay [15] was 6.49 µM (inactive); in assay [16], 29.2 µM (inactive); in [17] it was 19.1 µM (inactive).
For `Cc1ccc2[nH]c3c(C)c4ccncc4c(C)c3c2c1` the same measures were 0.933 µM (active), 0.927 µM (active) and 0.394 µM (active).
